Data taken from patent US11999716B2, “WDR5 inhibitors and modulators” (priority 2018, dated 2024).
Read-outs that look alike come from different tables or passages of the source.

System: MV4:11 human cancer cell lines
Assay: Cellular viability / anti-proliferative activity, CellTiter-Glo, 5 day protocol
Assay type: cell-based
Conditions: Homo sapiens, MV4-11, 120 h, read-out: GI50 on cellular proliferation of MV4:11 human cancer cell lines
In short: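 Cells seeded at 200 per well (7200 cells/mL) with compound in 2-fold serial dilutions from 30 μM top (22 points), 0.3% DMSO final. Viability read by CellTiter-Glo luminescence after 5 days; GI50 from sigmoidal dose-response fit, mean of at least two replicates.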

[1] = MV4:11 cells, 5 day incubation, CellTiter-Glo, mean of minimum two replicates

| GI50 [1] | Structure (SMILES) | GI50 |
| --- | --- | --- |
| < 0.05 µM | CCn1cc(-c2cc(Cn3ccnc3C)cc3c2CCN([C@H](c2cc(C)ccn2)C2CC2)C3=O)c(C(F)(F)F)n1 [Example 177, (S)-2-(Cyclopropyl(4-methylpyridin-2-yl)methyl)-5-(1-ethyl-3-(trifluoromethyl)-1H-pyrazol-4-yl)-7-((2-methyl-1H-imidazol-1-yl)methyl)-3,4-dihydroisoquinolin-1(2H)-one] | – |
| 0.906 µM | CCn1cc(-c2cc(Cn3ccn(C)c3=N)cc3c2CCN(Cc2cc(OC)ccn2)C3=O)cn1 [Example 49, 5-(1-Ethyl-1H-pyrazol-4-yl)-7-((2-imino-3-methyl-2,3-dihydro-1H-imidazol-1-yl)methyl)-2-((4-methoxypyridin-2-yl)methyl)-3,4-dihydroisoquinolin-1(2H)-one] | – |
| 0.113 µM | COc1ccnc(CN2CCc3c(cc(Cn4ccn(C5CC5)c4=N)cc3-c3cn(C)nc3C(F)(F)F)C2=O)c1 [Example 45, 7-((3-Cyclopropyl-2-imino-2,3-dihydro-1H-imidazol-1-yl)methyl)-2-((4-methoxypyridin-2-yl)methyl)-5-(1-methyl-3-(trifluoromethyl)-1H-pyrazol-4-yl)-3,4-dihydroisoquinolin-1(2H)-one] | – |
| < 0.05 µM | COc1ccnc(CN2CCc3c(cc(CN4CCOC4=N)cc3-c3cn(C)nc3C(F)(F)F)C2=O)c1 [Example 83, 7-((2-Iminooxazolidin-3-yl)methyl)-2-((4-methoxypyridin-2-yl)methyl)-5-(1-methyl-3-(trifluoromethyl)-1H-pyrazol-4-yl)-3,4-dihydroisoquinolin-1(2H)-one] | – |
| 0.056 µM | Cc1nccn1Cc1cc2c(c(-c3cn(C)nc3C(F)(F)F)c1)CCN(Cc1cc(Br)cc3c1OCC3)C2=O [Example 216, 2-((5-Bromo-2,3-dihydrobenzofuran-7-yl)methyl)-7-((2-methyl-1H-imidazol-1-yl)methyl)-5-(1-methyl-3-(trifluoromethyl)-1H-pyrazol-4-yl)-3,4-dihydroisoquinolin-1(2H)-one] | – |
| 3.46 µM | Cc1cccnc1CN1CCc2c(cc(Cn3ccnc3C)cc2-c2cn(C)nc2C(F)(F)F)C1=O [Example 181, 7-((2-Methyl-1H-imidazol-1-yl)methyl)-5-(1-methyl-3-(trifluoromethyl)-1H-pyrazol-4-yl)-2-((3-methylpyridin-2-yl)methyl)-3,4-dihydroisoquinolin-1(2H)-one] | – |
| 0.2 µM | COc1cc(CN2CCCc3c(cc(Cn4ccn(C)c4=N)cc3-c3ccc(F)cc3C)C2=O)cc(OC)c1 [Example 140, 2-(3,5-Dimethoxybenzyl)-6-(4-fluoro-2-methylphenyl)-8-((2-imino-3-methyl-2,3-dihydro-1H-imidazol-1-yl)methyl)-2,3,4,5-tetrahydro-1H-benzo[c]azepin-1-one] | – |
| < 0.05 µM | Cn1cc(-c2cc(Cn3ccoc3=N)cc3c2CCN(Cc2cc(C4CC4)nn2C)C3=O)c(C(F)(F)F)n1 [Example 150, 2-((3-Cyclopropyl-1-methyl-1H-pyrazol-5-yl)methyl)-7-((2-iminooxazol-3(2H)-yl)methyl)-5-(1-methyl-3-(trifluoromethyl)-1H-pyrazol-4-yl)-3,4-dihydroisoquinolin-1(2H)-one] | – |
| 0.054 µM | CCn1cc(-c2cc(Cn3ccn(C4CC4)c3=N)cc3c2CCN(Cc2cc(OC)ccn2)C3=O)c(C(F)(F)F)n1 [Example 58, 7-((3-Cyclopropyl-2-imino-2,3-dihydro-1H-imidazol-1-yl)methyl)-5-(1-ethyl-3-(trifluoromethyl)-1H-pyrazol-4-yl)-2-((4-methoxypyridin-2-yl)methyl)-3,4-dihydroisoquinolin-1(2H)-one] | – |
| < 0.05 µM | Cc1ccnc(CN2CCc3c(cc(Cn4ccn(C)c4=N)cc3-c3cn(C)nc3C(F)(F)F)C2=O)c1 [Example 53, 7-((2-Imino-3-methyl-2,3-dihydro-1H-imidazol-1-yl)methyl)-5-(1-methyl-3-(trifluoromethyl)-1H-pyrazol-4-yl)-2-((4-methylpyridin-2-yl)methyl)-3,4-dihydroisoquinolin-1(2H)-one] | – |
| – | COc1ccnc(CN2CCc3c(cc(Cc4cncn4C)cc3-c3cn(C)nc3C(F)(F)F)C2=O)c1 [Example 131, 2-((4-Methoxypyridin-2-yl)methyl)-7-((1-methyl-1H-imidazol-5-yl)methyl)-5-(1-methyl-3-(trifluoromethyl)-1H-pyrazol-4-yl)-3,4-dihydroisoquinolin-1(2H)-one] | > 0.938 µM |
| 0.095 µM | COc1cc(CN2CCc3c(cc(Cn4ccn(C5CC5)c4=N)cc3-c3ccc(F)cc3C)C2=O)cc(OC)c1 [Example 38, 7-((3-Cyclopropyl-2-imino-2,3-dihydro-1H-imidazol-1-yl)methyl)-2-(3,5-dimethoxybenzyl)-5-(4-fluoro-2-methylphenyl)-3,4-dihydroisoquinolin-1(2H)-one] | – |
| > 0.938 µM | COc1cc(CN2CCc3c(cc(Cn4ccn(C)c4=N)cc3-c3c(C)nn(C)c3C)C2=O)cc(OC)c1 [Example 64, 2-(3,5-Dimethoxybenzyl)-7-((2-imino-3-methyl-2,3-dihydro-1H-imidazol-1-yl)methyl)-5-(1,3,5-trimethyl-1H-pyrazol-4-yl)-3,4-dihydroisoquinolin-1(2H)-one] | – |
| 0.084 µM | COc1ccnc([C@H](C2CC2)N2CCc3c(cc(Cn4ccnc4)cc3-c3cn(C)nc3C)C2=O)c1 [Example 211, (S)-7-((1H-Imidazol-1-yl)methyl)-2-(cyclopropyl(4-methoxypyridin-2-yl)methyl)-5-(1,3-dimethyl-1H-pyrazol-4-yl)-3,4-dihydroisoquinolin-1(2H)-one] | – |
| 1.87 µM | Cc1nccn1Cc1cc2c(c(-c3cn(C)nc3C(F)(F)F)c1)CCN(c1cnccc1-c1ccccc1)C2=O [Example 246, 7-((2-Methyl-1H-imidazol-1-yl)methyl)-5-(1-methyl-3-(trifluoromethyl)-1H-pyrazol-4-yl)-2-(4-phenylpyridin-3-yl)-3,4-dihydroisoquinolin-1(2H)-one] | – |
| < 0.05 µM | CCn1cc(-c2cc(Cn3ccoc3=N)cc3c2CCN([C@@H](C)c2cc(OC)ccn2)C3=O)c(C(F)(F)F)n1 [Example 91, (S)-5-(1-Ethyl-3-(trifluoromethyl)-1H-pyrazol-4-yl)-7-((2-iminooxazol-3(2H)-yl)methyl)-2-(1-(4-methoxypyridin-2-yl)ethyl)-3,4-dihydroisoquinolin-1(2H)-one] | – |
| > 0.938 µM | CCn1cc(-c2cc(Cn3ccnc3C3CC3)cc3c2CCN(Cc2cc(C)nn2C)C3=O)c(C(F)(F)F)n1 [Example 14, 7-((2-Cyclopropyl-1H-imidazol-1-yl)methyl)-2-((1,3-dimethyl-1H-pyrazol-5-yl)methyl)-5-(1-ethyl-3-(trifluoromethyl)-1H-pyrazol-4-yl)-3,4-dihydroisoquinolin-1(2H)-one] | – |
| > 0.938 µM | COc1ccnc(CN2CCc3c(cc(CN4CCCC4=N)cc3-c3cn(C)nc3C)C2=O)c1 [Example 110, 5-(1,3-Dimethyl-1H-pyrazol-4-yl)-7-((2-iminopyrrolidin-1-yl)methyl)-2-((4-methoxypyridin-2-yl)methyl)-3,4-dihydroisoquinolin-1(2H)-one] | – |
| < 0.05 µM | Cc1cc([C@H](C)N2CCc3c(cc(Cn4ccn(C)c4=N)cc3-c3ccc(F)cc3C)C2=O)ccc1F [Example 40, (S)-5-(4-Fluoro-2-methylphenyl)-2-(1-(4-fluoro-3-methylphenyl)ethyl)-7-((2-imino-3-methyl-2,3-dihydro-1H-imidazol-1-yl)methyl)-3,4-dihydroisoquinolin-1(2H)-one] | – |
| < 0.05 µM | CCn1cc(-c2cc(Cn3ccnc3C)cc3c2CCN([C@@H](C)c2cncc(OC)c2)C3=O)c(C(F)(F)F)n1 [Example 243, (S)-5-(1-Ethyl-3-(trifluoromethyl)-1H-pyrazol-4-yl)-2-(1-(5-methoxypyridin-3-yl)ethyl)-7-((2-methyl-1H-imidazol-1-yl)methyl)-3,4-dihydroisoquinolin-1(2H)-one] | – |
| < 0.05 µM | CCc1ccnc(CN2CCc3c(cc(Cn4ccnc4CC)cc3-c3cn(CC)nc3C(F)(F)F)C2=O)c1 [Example 149, 7-((2-Ethyl-1H-imidazol-1-yl)methyl)-5-(1-ethyl-3-(trifluoromethyl)-1H-pyrazol-4-yl)-2-((4-ethylpyridin-2-yl)methyl)-3,4-dihydroisoquinolin-1(2H)-one] | – |
| > 0.938 µM | CCn1cc(-c2cc(CN3CCCC3=N)cc3c2CCN(Cc2cc(OC)ccn2)C3=O)cn1 [Example 111, 5-(1-Ethyl-1H-pyrazol-4-yl)-7-((2-iminopyrrolidin-1-yl)methyl)-2-((4-methoxypyridin-2-yl)methyl)-3,4-dihydroisoquinolin-1(2H)-one] | – |
| > 0.938 µM | Cc1cc([C@H](C)N2CCc3c(OCC4CC4)cc(Cn4ccnc4C4CC4)cc3C2=O)ccc1F [Example 23, (S)-7-((2-Cyclopropyl-1H-imidazol-1-yl)methyl)-5-(cyclopropylmethoxy)-2-(1-(4-fluoro-3-methylphenyl)ethyl)-3,4-dihydroisoquinolin-1(2H)-one] | – |
| 2.79 µM | Cc1nccn1Cc1cc2c(c(-c3cn(C)nc3C(F)(F)F)c1)CCN(c1ccccc1OC(F)(F)F)C2=O [Example 255, 7-((2-Methyl-1H-imidazol-1-yl)methyl)-5-(1-methyl-3-(trifluoromethyl)-1H-pyrazol-4-yl)-2-(2-(trifluoromethoxy)phenyl)-3,4-dihydroisoquinolin-1(2H)-one] | – |
| 0.121 µM | Cc1nccn1Cc1cc2c(c(-c3cn(C)nc3C(F)(F)F)c1)CCN(Cc1cc(Br)cc3[nH]ccc13)C2=O [Example 236, 2-((6-Bromo-1H-indol-4-yl)methyl)-7-((2-methyl-1H-imidazol-1-yl)methyl)-5-(1-methyl-3-(trifluoromethyl)-1H-pyrazol-4-yl)-3,4-dihydroisoquinolin-1(2H)-one] | – |
| < 0.05 µM | CCn1cc(-c2cc(Cn3ccnc3C)cc3c2CCN([C@H](c2cc(OC)ccn2)C2CC2)C3=O)c(C(F)(F)F)n1 [Example 206, (S)-2-(cyclopropyl(4-methoxypyridin-2-yl)methyl)-5-(1-ethyl-3-(trifluoromethyl)-1H-pyrazol-4-yl)-7-((2-methyl-1H-imidazol-1-yl)methyl)-3,4-dihydroisoquinolin-1(2H)-one] | – |
